Test system: 624824-186-R-J2-PDC multicell spheroids, viability
Assay: Anticancer human tumor 624824-186-R-J2-PDC patient-derived colon adenocarcinoma cell line growth inhibition [PI3K]
Details: for IC50: curve of first compound; for viability, T/C: stronger effect = lower value
How it was run: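 Spheroid viability read-out. Co-cultures contained the tumor line plus HUVEC and human MSCs. Each agent was paired with a PI3K inhibitor (inavolisib, alpelisib, duvelisib, copanlisib) across half-log dilutions starting at clinical Cmax, or at 10 microM when Cmax was unknown.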

[1] = second compound 0.0316 µM, first compound 0.0316 µM
[2] = second compound 0.0316 µM, first compound 0.1 µM
[3] = second compound 0.0316 µM, first compound 0.316 µM
[4] = second compound 0.0316 µM, first compound 1 µM
[5] = second compound 0.0316 µM, first compound 3.16 µM
[6] = second compound 0.0316 µM, first compound 10 µM
[7] = second compound 0.1 µM, first compound 0.0316 µM
[8] = second compound 0.1 µM, first compound 0.1 µM
[9] = second compound 0.1 µM, first compound 0.316 µM
[10] = second compound 0.1 µM, first compound 1 µM
[11] = second compound 0.1 µM, first compound 3.16 µM
[12] = second compound 0.1 µM, first compound 10 µM
[13] = second compound 0.316 µM, first compound 0.0316 µM
[14] = second compound 0.316 µM, first compound 0.1 µM
[15] = second compound 0.316 µM, first compound 0.316 µM
[16] = second compound 0.316 µM, first compound 1 µM
[17] = second compound 0.316 µM, first compound 3.16 µM
[18] = second compound 0.316 µM, first compound 10 µM
[19] = second compound 1 µM, first compound 0.0316 µM
[20] = second compound 1 µM, first compound 0.1 µM
[21] = second compound 1 µM, first compound 0.316 µM
[22] = second compound 1 µM, first compound 1 µM
[23] = second compound 1 µM, first compound 3.16 µM
[24] = second compound 1 µM, first compound 10 µM
[25] = second compound 3.16 µM, first compound 0.0316 µM
[26] = second compound 3.16 µM, first compound 0.1 µM
[27] = second compound 3.16 µM, first compound 0.316 µM
[28] = second compound 3.16 µM, first compound 1 µM
[29] = second compound 3.16 µM, first compound 3.16 µM
[30] = second compound 3.16 µM, first compound 10 µM
[31] = second compound 10 µM, first compound 0.0316 µM
[32] = second compound 10 µM, first compound 0.1 µM
[33] = second compound 10 µM, first compound 0.316 µM
[34] = second compound 10 µM, first compound 1 µM
[35] = second compound 10 µM, first compound 3.16 µM
[36] = second compound 10 µM, first compound 10 µM
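Note: spheroids exposed to agents for 7 days before viability read.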
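Throughout, for viability, T/C: 100% = DMSO vehicle treated spheroids.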

Structure (SMILES): C#Cc1c(F)ccc2cc(O)cc(-c3ncc4c(N5CC6CCC(C5)N6)nc(OCC56CCCN5CC(F)C6)nc4c3F)c12 (stereo not drawn) + CC(Nc1ncnc2nc[nH]c12)c1cc2cccc(Cl)c2c(=O)n1-c1ccccc1
- IC50 (second compound 0.0316 µM): > 10 µM
- IC50 (second compound 0.1 µM): > 10 µM
- IC50 (second compound 0.316 µM): > 10 µM
- IC50 (second compound 1 µM): > 10 µM
- IC50 (second compound 3.16 µM): > 10 µM
- IC50 (second compound 10 µM): > 10 µM
- viability, T/C [1]: 81.5%
- viability, T/C [2]: 80%
- viability, T/C [3]: 106%
- viability, T/C [4]: 73.1%
- viability, T/C [5]: 93.2%
- viability, T/C [6]: 59.5%
- viability, T/C [7]: 83.8%
- viability, T/C [8]: 78.7%
- viability, T/C [9]: 76%
- viability, T/C [10]: 74.1%
- viability, T/C [11]: 77.9%
- viability, T/C [12]: 67.7%
- viability, T/C [13]: 78.9%
- viability, T/C [14]: 93.6%
- viability, T/C [15]: 93.8%
- viability, T/C [16]: 82.5%
- viability, T/C [17]: 64.5%
- viability, T/C [18]: 71.9%
- viability, T/C [19]: 73%
- viability, T/C [20]: 72.8%
- viability, T/C [21]: 81%
- viability, T/C [22]: 76.6%
- viability, T/C [23]: 86.3%
- viability, T/C [24]: 75.5%
- viability, T/C [25]: 78.8%
- viability, T/C [26]: 97.9%
- viability, T/C [27]: 74.7%
- viability, T/C [28]: 84.3%
- viability, T/C [29]: 94.6%
- viability, T/C [30]: 70.2%
- viability, T/C [31]: 87.4%
- viability, T/C [32]: 83.2%
- viability, T/C [33]: 91.4%
- viability, T/C [34]: 102%
- viability, T/C [35]: 98%
- viability, T/C [36]: 89.4%

Structure (SMILES): C=CC(=O)N1CCN(c2nc(=O)n(-c3c(C)ccnc3C(C)C)c3nc(-c4c(O)cccc4F)c(F)cc23)C(C)C1 (stereo not drawn) + CC(Nc1ncnc2nc[nH]c12)c1cc2cccc(Cl)c2c(=O)n1-c1ccccc1
- IC50 (second compound 0.0316 µM): > 10 µM
- IC50 (second compound 0.1 µM): > 10 µM
- IC50 (second compound 0.316 µM): > 10 µM
- IC50 (second compound 1 µM): > 10 µM
- IC50 (second compound 3.16 µM): > 10 µM
- IC50 (second compound 10 µM): > 10 µM
- viability, T/C [1]: 77.6%
- viability, T/C [2]: 82.8%
- viability, T/C [3]: 100%
- viability, T/C [4]: 85.2%
- viability, T/C [5]: 75.2%
- viability, T/C [6]: 77.9%
- viability, T/C [7]: 95.2%
- viability, T/C [8]: 77.9%
- viability, T/C [9]: 82%
- viability, T/C [10]: 93.6%
- viability, T/C [11]: 78.1%
- viability, T/C [12]: 90.2%
- viability, T/C [13]: 104%
- viability, T/C [14]: 94.2%
- viability, T/C [15]: 79.4%
- viability, T/C [16]: 88.7%
- viability, T/C [17]: 83.8%
- viability, T/C [18]: 72.8%
- viability, T/C [19]: 106%
- viability, T/C [20]: 80.7%
- viability, T/C [21]: 84.8%
- viability, T/C [22]: 84.4%
- viability, T/C [23]: 77.3%
- viability, T/C [24]: 70.6%
- viability, T/C [25]: 97.6%
- viability, T/C [26]: 96.6%
- viability, T/C [27]: 77.5%
- viability, T/C [28]: 90.4%
- viability, T/C [29]: 85.5%
- viability, T/C [30]: 81%
- viability, T/C [31]: 116%
- viability, T/C [32]: 98.7%
- viability, T/C [33]: 109%
- viability, T/C [34]: 99.2%
- viability, T/C [35]: 92.3%
- viability, T/C [36]: 83%

Structure (SMILES): CC(Cn1ccc(-c2ccc(C#N)c(Cl)c2)n1)NC(=O)c1cc(C(C)O)[nH]n1 (stereo not drawn) + CC(Nc1ncnc2nc[nH]c12)c1cc2cccc(Cl)c2c(=O)n1-c1ccccc1
- IC50 (second compound 0.0316 µM): > 10 µM
- IC50 (second compound 0.1 µM): > 10 µM
- IC50 (second compound 0.316 µM): > 10 µM
- IC50 (second compound 1 µM): > 10 µM
- IC50 (second compound 3.16 µM): > 10 µM
- IC50 (second compound 10 µM): > 10 µM
- viability, T/C [1]: 98.2%
- viability, T/C [2]: 90.6%
- viability, T/C [3]: 96.1%
- viability, T/C [4]: 106%
- viability, T/C [5]: 99.2%
- viability, T/C [6]: 113%
- viability, T/C [7]: 92.1%
- viability, T/C [8]: 93.6%
- viability, T/C [9]: 114%
- viability, T/C [10]: 108%
- viability, T/C [11]: 98.5%
- viability, T/C [12]: 115%
- viability, T/C [13]: 111%
- viability, T/C [14]: 102%
- viability, T/C [15]: 84.7%
- viability, T/C [16]: 97.5%
- viability, T/C [17]: 107%
- viability, T/C [18]: 100%
- viability, T/C [19]: 105%
- viability, T/C [20]: 106%
- viability, T/C [21]: 95.2%
- viability, T/C [22]: 94.5%
- viability, T/C [23]: 80.5%
- viability, T/C [24]: 92.4%
- viability, T/C [25]: 112%
- viability, T/C [26]: 102%
- viability, T/C [27]: 85.5%
- viability, T/C [28]: 102%
- viability, T/C [29]: 110%
- viability, T/C [30]: 115%
- viability, T/C [31]: 103%
- viability, T/C [32]: 106%
- viability, T/C [33]: 110%
- viability, T/C [34]: 115%
- viability, T/C [35]: 106%
- viability, T/C [36]: 107%

Structure (SMILES): CC1(C)CCC(Nc2ncc(C(F)(F)F)c(-c3c[nH]c4c(P(C)(C)=O)c(C#N)ccc34)n2)CN1 (stereo not drawn) + CC(Nc1ncnc2nc[nH]c12)c1cc2cccc(Cl)c2c(=O)n1-c1ccccc1
- IC50 (second compound 0.0316 µM): 3.55 µM
- IC50 (second compound 0.1 µM): 4.27 µM
- IC50 (second compound 0.316 µM): 3.13 µM
- IC50 (second compound 1 µM): 3.73 µM
- IC50 (second compound 3.16 µM): 2.99 µM
- IC50 (second compound 10 µM): 2.97 µM
- viability, T/C [1]: 81.1%
- viability, T/C [2]: 93.2%
- viability, T/C [3]: 102%
- viability, T/C [4]: 108%
- viability, T/C [5]: 54.9%
- viability, T/C [6]: 6.48%
- viability, T/C [7]: 94.1%
- viability, T/C [8]: 92.3%
- viability, T/C [9]: 96.3%
- viability, T/C [10]: 104%
- viability, T/C [11]: 65.7%
- viability, T/C [12]: 6.11%
- viability, T/C [13]: 91%
- viability, T/C [14]: 76.4%
- viability, T/C [15]: 90.8%
- viability, T/C [16]: 108%
- viability, T/C [17]: 49.7%
- viability, T/C [18]: 5.05%
- viability, T/C [19]: 108%
- viability, T/C [20]: 94.1%
- viability, T/C [21]: 100%
- viability, T/C [22]: 98.7%
- viability, T/C [23]: 57.6%
- viability, T/C [24]: 4.82%
- viability, T/C [25]: 91.2%
- viability, T/C [26]: 94.7%
- viability, T/C [27]: 100%
- viability, T/C [28]: 93.3%
- viability, T/C [29]: 47.8%
- viability, T/C [30]: 4.88%
- viability, T/C [31]: 100%
- viability, T/C [32]: 84.4%
- viability, T/C [33]: 92.3%
- viability, T/C [34]: 81.3%
- viability, T/C [35]: 48.1%
- viability, T/C [36]: 3.89%

Source: PubChem BioAssay AID1963975 (Molecular Pharmacology Branch, DTP, NCI, 2024)
